From ChEMBL document CHEMBL1131574, “Specific and irreversible cyclopeptide inhibitors of dipeptidyl peptidase IV activity of the T-cell activation antigen CD26” (J Med Chem, 1998)

Target: Dipeptidyl peptidase 4 (Homo sapiens, UniProt P27487)
Assay: Inhibitory activity against hydrolysis of Gly-Pro-pNa by CD26 (Dipeptidyl peptidase IV) purified from CEM H01 cells
Type: cell-free, CCRF-CEM

Chain of Dipeptidyl peptidase 4 (P27487 whole entry): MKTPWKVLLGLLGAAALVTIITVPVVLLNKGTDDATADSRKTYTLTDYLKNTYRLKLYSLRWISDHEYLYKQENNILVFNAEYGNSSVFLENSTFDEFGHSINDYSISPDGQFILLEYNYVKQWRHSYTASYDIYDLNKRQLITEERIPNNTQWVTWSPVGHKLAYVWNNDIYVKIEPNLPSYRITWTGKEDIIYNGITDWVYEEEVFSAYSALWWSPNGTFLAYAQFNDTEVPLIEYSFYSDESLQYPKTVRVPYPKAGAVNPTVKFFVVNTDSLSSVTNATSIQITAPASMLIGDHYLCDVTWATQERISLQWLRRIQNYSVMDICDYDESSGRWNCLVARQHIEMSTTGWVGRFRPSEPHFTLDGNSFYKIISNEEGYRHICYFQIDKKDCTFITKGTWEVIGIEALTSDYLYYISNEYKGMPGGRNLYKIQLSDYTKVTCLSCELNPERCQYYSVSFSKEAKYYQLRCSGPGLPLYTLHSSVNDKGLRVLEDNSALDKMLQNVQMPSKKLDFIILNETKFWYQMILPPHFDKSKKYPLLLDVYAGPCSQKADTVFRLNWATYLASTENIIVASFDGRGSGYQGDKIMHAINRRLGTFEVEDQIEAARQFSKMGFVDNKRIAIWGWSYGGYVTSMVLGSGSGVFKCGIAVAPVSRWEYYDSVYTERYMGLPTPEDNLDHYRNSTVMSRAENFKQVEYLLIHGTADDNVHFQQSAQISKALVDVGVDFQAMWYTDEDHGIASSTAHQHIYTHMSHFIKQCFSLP

IC50: 30 nM
SMILES: CCCCCCCC[S+](CCCCCCCC)Cc1ccc2cc1C(=O)NCC(=O)NCC(=O)NCCCC[C@H](N)C(=O)N1CCC[C@H]1C(=O)N2
